How the values were obtained:
Test in all cases: relative viability (nuclei count vs DMSO), 5 days (fraction); higher = more cells survive
COR-L23 = test system: COR-L23
Outline: (§1)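 After 5 days of treatment, lung cancer cells in 1536-well plates were fixed and stained in a single step (final 0.05% Triton X-100, 1% formaldehyde, 1 ug/ml Hoechst) and their nuclei counted on 4× images. Treatment had been applied by pin tool the day after seeding as one drug alone or as a fixed anchor-drug dose with five library-drug doses (not always all listed) in √10 steps. Relative viability is the nuclei count of treated wells divided by that of vehicle wells, and values are medians of duplicate plates.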

ChaGo-K-1 = test system: ChaGo-K-1
Outline: as §1

EMC-BAC-2 = test system: EMC-BAC-2
Outline: as §1

EPLC-272H = test system: EPLC-272H
Outline: as §1

H3255 = test system: H3255
Outline: as §1

HCC-44 = test system: HCC-44
Outline: as §1

HCC-827 = test system: HCC-827
Outline: as §1

LCLC-103H = test system: LCLC-103H
Outline: as §1

LU99A = test system: LU99A
Outline: as §1

NCI-H1395 = test system: NCI-H1395
Outline: as §1

NCI-H1651 = test system: NCI-H1651
Outline: as §1

NCI-H1793 = test system: NCI-H1793
Outline: as §1

NCI-H1944 = test system: NCI-H1944
Outline: as §1

NCI-H2023 = test system: NCI-H2023
Outline: as §1

NCI-H2085 = test system: NCI-H2085
Outline: as §1

NCI-H2087 = test system: NCI-H2087
Outline: as §1

NCI-H2405 = test system: NCI-H2405
Outline: as §1

NCI-H520 = test system: NCI-H520
Outline: as §1

NCI-H650 = test system: NCI-H650
Outline: as §1

NCI-H838 = test system: NCI-H838
Outline: as §1

SK-MES-1 = test system: SK-MES-1
Outline: as §1

In the case of O=c1cc(-c2cccc3c2Sc2ccccc2S3)oc(N2CCOCC2)c1 + Cc1cc(Nc2cc(N3CCN(C)CC3)nc(Sc3ccc(NC(=O)C4CC4)cc3)n2)n[nH]1 [Tozasertib] (partner 0.1 µM), the relative viability (COR-L23; first compound 0.08 µM) is reported as 0.202, the relative viability (COR-L23; first compound 0.253 µM) is reported as 0.202 and the relative viability (COR-L23; first compound 0.8 µM) is reported as 0.188. It also gave a relative viability (COR-L23; first compound 2.53 µM) of 0.148, a relative viability (COR-L23; first compound 8 µM) of 0.172 and a relative viability (ChaGo-K-1; first compound 0.08 µM) of 0.213. It also gave a relative viability (ChaGo-K-1; first compound 0.253 µM) of 0.215, a relative viability (ChaGo-K-1; first compound 0.8 µM) of 0.218 and a relative viability (ChaGo-K-1; first compound 2.53 µM) of 0.21. The relative viability (ChaGo-K-1; first compound 8 µM) was 0.209, the relative viability (EMC-BAC-2; first compound 0.08 µM) was 0.242 and the relative viability (EMC-BAC-2; first compound 0.253 µM) was 0.299. It also gave a relative viability (EMC-BAC-2; first compound 0.8 µM) of 0.295, a relative viability (EMC-BAC-2; first compound 2.53 µM) of 0.257 and a relative viability (EMC-BAC-2; first compound 8 µM) of 0.293. It also gave a relative viability (EPLC-272H; first compound 0.08 µM) of 0.238, a relative viability (EPLC-272H; first compound 0.253 µM) of 0.193 and a relative viability (EPLC-272H; first compound 0.8 µM) of 0.299. For the same compound, the relative viability (EPLC-272H; first compound 2.53 µM) was 0.237, the relative viability (EPLC-272H; first compound 8 µM) was 0.236 and the relative viability (H3255; first compound 0.08 µM) was 0.441. It also gave a relative viability (H3255; first compound 0.253 µM) of 0.604, a relative viability (H3255; first compound 0.8 µM) of 0.759 and a relative viability (H3255; first compound 2.53 µM) of 0.686. The relative viability (H3255; first compound 8 µM) was 0.867, the relative viability (HCC-44; first compound 0.08 µM) was 0.888 and the relative viability (HCC-44; first compound 0.253 µM) was 1.01. The relative viability (HCC-44; first compound 2.53 µM) was 0.717, the relative viability (HCC-44; first compound 8 µM) was 0.54 and the relative viability (HCC-827; first compound 0.08 µM) was 0.462. For the same compound, the relative viability (HCC-827; first compound 0.253 µM) was 0.409, the relative viability (HCC-827; first compound 0.8 µM) was 0.46 and the relative viability (HCC-827; first compound 2.53 µM) was 0.415. For the same compound, the relative viability (HCC-827; first compound 8 µM) was 0.437, the relative viability (LCLC-103H; first compound 0.08 µM) was 0.285 and the relative viability (LCLC-103H; first compound 0.253 µM) was 0.502. For the same compound, the relative viability (LCLC-103H; first compound 0.8 µM) was 0.494, the relative viability (LCLC-103H; first compound 2.53 µM) was 0.369 and the relative viability (LCLC-103H; first compound 8 µM) was 0.473. It also gave a relative viability (LU99A; first compound 0.08 µM) of 0.279, a relative viability (LU99A; first compound 0.253 µM) of 0.252 and a relative viability (LU99A; first compound 0.8 µM) of 0.28. The relative viability (LU99A; first compound 2.53 µM) was 0.285, the relative viability (LU99A; first compound 8 µM) was 0.296 and the relative viability (NCI-H1395; first compound 0.08 µM) was 0.755. The relative viability (NCI-H1395; first compound 0.253 µM) was 0.738, the relative viability (NCI-H1395; first compound 0.8 µM) was 0.762 and the relative viability (NCI-H1395; first compound 2.53 µM) was 0.681. For the same compound, the relative viability (NCI-H1395; first compound 8 µM) was 0.703, the relative viability (NCI-H1651; first compound 0.08 µM) was 0.669 and the relative viability (NCI-H1651; first compound 0.253 µM) was 0.668. For the same compound, the relative viability (NCI-H1651; first compound 0.8 µM) was 0.625, the relative viability (NCI-H1651; first compound 2.53 µM) was 0.672 and the relative viability (NCI-H1651; first compound 8 µM) was 0.669. It also gave a relative viability (NCI-H1793; first compound 0.08 µM) of 0.362, a relative viability (NCI-H1793; first compound 0.253 µM) of 0.38 and a relative viability (NCI-H1793; first compound 0.8 µM) of 0.325. For the same compound, the relative viability (NCI-H1793; first compound 2.53 µM) was 0.228, the relative viability (NCI-H1793; first compound 8 µM) was 0.245 and the relative viability (NCI-H1944; first compound 0.08 µM) was 0.252. For the same compound, the relative viability (NCI-H1944; first compound 0.253 µM) was 0.256, the relative viability (NCI-H1944; first compound 0.8 µM) was 0.23 and the relative viability (NCI-H1944; first compound 2.53 µM) was 0.24. It also gave a relative viability (NCI-H1944; first compound 8 µM) of 0.232, a relative viability (NCI-H2023; first compound 0.08 µM) of 0.309 and a relative viability (NCI-H2023; first compound 0.253 µM) of 0.295. It also gave a relative viability (NCI-H2023; first compound 0.8 µM) of 0.302, a relative viability (NCI-H2023; first compound 2.53 µM) of 0.216 and a relative viability (NCI-H2023; first compound 8 µM) of 0.247. For the same compound, the relative viability (NCI-H2085; first compound 0.08 µM) was 0.778, the relative viability (NCI-H2085; first compound 0.253 µM) was 0.724 and the relative viability (NCI-H2085; first compound 0.8 µM) was 0.768. It also gave a relative viability (NCI-H2085; first compound 2.53 µM) of 0.579, a relative viability (NCI-H2085; first compound 8 µM) of 0.551 and a relative viability (NCI-H2087; first compound 0.08 µM) of 0.231. It also gave a relative viability (NCI-H2087; first compound 0.253 µM) of 0.282, a relative viability (NCI-H2087; first compound 0.8 µM) of 0.266 and a relative viability (NCI-H2087; first compound 2.53 µM) of 0.191. The relative viability (NCI-H2087; first compound 8 µM) was 0.171, the relative viability (NCI-H2405; first compound 0.08 µM) was 0.667 and the relative viability (NCI-H2405; first compound 0.253 µM) was 0.752. The relative viability (NCI-H2405; first compound 0.8 µM) was 0.72, the relative viability (NCI-H2405; first compound 2.53 µM) was 0.638 and the relative viability (NCI-H2405; first compound 8 µM) was 0.681. The relative viability (NCI-H520; first compound 0.08 µM) was 0.383, the relative viability (NCI-H520; first compound 0.253 µM) was 0.375 and the relative viability (NCI-H520; first compound 0.8 µM) was 0.502. For the same compound, the relative viability (NCI-H520; first compound 2.53 µM) was 0.472, the relative viability (NCI-H520; first compound 8 µM) was 0.421 and the relative viability (NCI-H650; first compound 0.08 µM) was 0.641. The relative viability (NCI-H650; first compound 0.253 µM) was 0.662, the relative viability (NCI-H650; first compound 0.8 µM) was 0.758 and the relative viability (NCI-H650; first compound 8 µM) was 0.708. The relative viability (NCI-H838; first compound 0.08 µM) was 0.295, the relative viability (NCI-H838; first compound 0.253 µM) was 0.277 and the relative viability (NCI-H838; first compound 0.8 µM) was 0.245. The relative viability (NCI-H838; first compound 2.53 µM) was 0.273, the relative viability (NCI-H838; first compound 8 µM) was 0.266 and the relative viability (SK-MES-1; first compound 0.08 µM) was 0.902. For the same compound, the relative viability (SK-MES-1; first compound 0.253 µM) was 1.04, the relative viability (SK-MES-1; first compound 0.8 µM) was 0.879 and the relative viability (SK-MES-1; first compound 2.53 µM) was 0.848. The relative viability (SK-MES-1; first compound 8 µM) was 0.852.
